Laboratory results: patent US20120232062A1, “AZAINDAZOLES TO TREAT FLAVIVIRIDAE VIRUS INFECTION” (EIGER BIOPHARMACEUTICALS, INC., priority 2009, published 2012)
pEC50: −log10 of the molar value. Read-outs that look alike come from different tables or passages of the source.

System: HCV genotype 1b
Test: HCV 1b replicon luciferase assay
Assay type: cell-based
Conditions: Table 1, Huh7 HCV 1b replicon, luciferase reporter, 48 hours, read-out: 1b EC50
Description: A suitable 1b HCV RNA replicon assay uses the Huh7 cell line which contains an HCV 1b RNA replicon with a stable luciferase (LUC) reporter. This construct contains modifications that make the cell line more robust and provides stable LUC expression for antiviral screening. The LUC reporter is used as an indirect measure of HCV replication. The activity of the LUC reporter is directly proportional to HCV RNA levels and positive control antiviral compounds behave comparably using LUC endpoints. […]
Fresh growth medium is prepared just before use. The container used in the procedure is a 10 cm diameter culture dish. HCV replicon reporter cell lines are used. Prepare complete medium: add FBS and appropriate additives as described in “Culture Media”, below. Pre-warm the medium in a 37° C. thermostat water bath. Remove the dish from a 37° C. CO2 incubator. Check the cell name and complete medium and passage number marked on the dish. Aspirate the medium carefully and add 1 ml PBS to rinse the cells. Remove and discard the solution and add 1 ml of 0.25% Trypsin/0.02% EDTA. Rinse the cells with the added Trypsin/EDTA to ensure all the cells have been rinsed. Remove the Trypsin/EDTA with a vacuum pump and incubate at 37° C. for 3-5 minutes. Examine the cell morphology under an inverted microscope to confirm that a single cell suspension is clearly visible. Add 3 ml of complete medium to the dish and suspend the cell by gentle pipetting. Count the cell numbers with a hematometer. Adjust cell density to 100 k/ml by adding appropriate volume of the complete medium. Add 100 μl of cell suspension to each well of a 96-well white plate; the cell density is thus 10 k per well. Mark the plate with cell name, passage number, seeding density, date and the name of the operator. Place the 96-well assay plate in 37° C. 5% CO2 incubator for 24 hours.
Compounds are prepared or provided at 25 mM in 100% DMSO. This is the compound stock solution. The dilution procedure should be performed in a cell culture hood. Dispense the stock solution into the second column of a 96-well plate. Prepare 9-step (10 concentrations total), 5-fold serial dilutions by transferring 10 μA of the compound into the next well containing 40 μA of DMSO. Repeat for all compounds. Aspirate 2 μl of the above compound solution from each well and add into 198 μl complete media using a 12-channel pipetter to obtain the 10-fold concentration compound solution with 1% DMSO, mix well.
Remove the 96-well assay plate from the 37° C./5% CO2 incubator, examine the cell morphology under an inverted microscope. In a cell culture hood, add 10 μl of the 10× concentration compounds solution into each well on the 96-well assay plate. All compound's dose responses are done in duplicate. The starting final concentration of the compounds is 25 μM, and DMSO final concentration 0.1%. Mark the plate with compound code(s) and concentrations. Place the 96-well assay plate into CO2 incubator for 48 hours. Add 30 μl of Stead-Glo Luciferase System (Promega) reagent to each well and mix by gentle shaking on a plate shaker for 5 minutes to allow throughout cell lysis. Measure the luminescence with Envision (Perkin Elmer) with an integration time of 2 seconds. Record and analyze the data.
The cell culture media is DMEM complete: DMEM (Life Technologies #41965-039) supplemented with 10% FCS, 2 mM Glutamin (Life Technologies #25030-024), Penicillin (100 IU/ml)/Streptomycin (100 μg/ml) (Life Technologies #15140-114) and 1× nonessential amino acids (Life Technologies #11140-035). G418 (“Geneticin”, Life Technologies): concentrations are given as weight per volume of the original substance. Specific activity of a typical batch is ca. 700 μg/mg as stated by the manufacturer. […] Therefore each new batch of G418 should be tested individually e.g. in an electroporation experiment using different selection conditions (0.2-1 mg/ml).

SMILES	pEC50 (Hepatitis C virus, Huh-7, 48 h)	pEC50
Cn1nc(C(=O)NC2CCNCC2)c2ccc(NCc3ccccc3)nc21 [compound 1042]	5.42	–
Cn1nc(C(=O)NC2CCN(Cc3ccncc3)CC2)c2ccc(N3CCCCCC3)nc21 [compound 1043]	5.92	–
COc1ccc(CN2CCC(NC(=O)c3nn(C)c4nc(N5CCCCCC5)ccc34)CC2)cc1 [compound 1044]	6.12	–
Cc1ccc(CN2CCC(NC(=O)c3nn(C)c4nc(N5CCCCCC5)ccc34)CC2)cc1 [compound 1045]	–	5.96
CC(C)c1ccc(CN2CCC(NC(=O)c3nn(C)c4nc(N5CCCCCC5)ccc34)CC2)cc1 [compound 1046]	5.85	–
Cn1nc(C(=O)NC2CCNCC2)c2ccc(N3CCCN(Cc4ccccc4)CC3)nc21 [compound 1049]	5.21	–
Cn1nc(C(=O)NC2CCNCC2)c2ccc(OCc3ccccc3)nc21 [compound 1051]	5.54	–
Cn1nc(-c2c[nH]c(CC3CCNCC3)n2)c2ccc(N3CCCCCC3)nc21 [compound 1054]	5.07	–
Cn1nc(C(=O)NC2CCNCC2)c2ccc(OCc3ccccc3Br)nc21 [compound 1065]	5.48	–
Cn1nc(C(=O)NC2CCNCC2)c2ccc(OCc3ccccc3-c3nc4ccccc4s3)nc21 [compound 1066]	5.60	–
Cn1nc(-c2ncc(-c3ccc(Br)cc3)[nH]2)c2ccc(N3CCCCCC3)nc21 [compound 1069]	5.08	–
Cn1nc(C(=O)NC2CCN(CC3CCCCC3)CC2)c2ccc(NC3CCCCCC3)nc21 [compound 1073]	6.17	–
CC(C)CN(C)c1ccc2c(C(=O)NC3CCN(CC4CCCCC4)CC3)nn(C)c2n1 [compound 1075]	6.12	–
Cn1nc(C(=O)NC2CCN(CC3CCCCC3)CC2)c2ccc(NC3CCCCCCC3)nc21 [compound 1076]	6.22	–
CN(c1ccc2c(C(=O)NC3CCN(CC4CCCCC4)CC3)nn(C)c2n1)C1CCCCCC1 [compound 1077]	5.80	–
Cn1nc(C(=O)NC2CCNCC2)c2ccc(OCc3ccccc3-c3cccnc3)nc21 [compound 1085]	5.66	–
Cn1nc(C(=O)NC2CCNCC2)c2ccc(OCc3ccccc3-c3cccc(Cl)c3)nc21 [compound 1088]	5.85	–
Cn1nc(-c2c[nH]c(C3CCNCC3)n2)c2ccc(N3CCCCCC3)nc21 [compound 1094]	5.19	–
Cn1nc(-c2c[nH]c(C3CCCNC3)n2)c2ccc(N3CCCCCC3)nc21 (stereo not drawn) [compound 1095]	5.42	–
Cn1nc(-c2coc(CC3CCNCC3)n2)c2ccc(N3CCCCCC3)nc21 [compound 1096]	5.55	–
Cn1nc(-c2cnc(C(=O)NCC3CCNCC3)s2)c2ccc(N3CCCCCC3)nc21 [compound 1097]	5.47	–
Cn1nc(C(=O)NC2CCNCC2)c2ccc(OCc3ccccc3-c3ccco3)nc21 [compound 1100]	5.85	–
Cn1nc(C(=O)NC2CCNCC2)c2ccc(OCc3ccccc3-c3cccs3)nc21 [compound 1101]	6.10	–
Cn1nc(C(=O)NC2CCNCC2)c2ccc(OCc3ccccc3-c3ccc(Cl)cc3)nc21 [compound 1102]	6.21	–
C=CCCCCCCN1CCC(NC(=O)c2nn(C)c3nc(N4CCCCCC4)ccc23)CC1 [compound 1103]	6.52	–
C=CCCCn1nc(C(=O)NC2CCN(CC=C)CC2)c2ccc(N3CCCCCC3)nc21 [compound 1104]	5.66	–
C=CCCCCn1nc(C(=O)NC2CCN(CC=C)CC2)c2ccc(N3CCCCCC3)nc21 [compound 1105]	5.12	–
C=CCCCCCn1nc(C(=O)NC2CCN(CC=C)CC2)c2ccc(N3CCCCCC3)nc21 [compound 1106]	5.09	–
COc1cncc(-c2ccccc2COc2ccc3c(C(=O)NC4CCNCC4)nn(C)c3n2)c1 [compound 1119]	5.82	–
Cn1nc(-c2nnc(C3CCNCC3)o2)c2ccc(N3CCCCCC3)nc21 [compound 1125]	6.08	–
